Reference: PubChem BioAssay (NCI)
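These data come from cells grown in 96-well plates and exposed to compound for 48 hours at five concentrations. The concentration for 50% growth inhibition is given as GI50. At the TGI there is no net growth.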

How the values were obtained:
Assay in all cases: NCI tumour cell line growth inhibition, 48 h
HT29 colon = test system: HT29 colon
MALME-3M melanoma = test system: MALME-3M melanoma
MDA-MB-435 = test system: MDA-MB-435
RXF 393 renal = test system: RXF 393 renal
HOP-92 NSCLC = test system: HOP-92 NSCLC
CCRF-CEM leukemia = test system: CCRF-CEM leukemia
SK-OV-3 ovarian = test system: SK-OV-3 ovarian
MCF7 breast = test system: MCF7 breast
NCI-H460 lung = test system: NCI-H460 lung
SNB-75 CNS = test system: SNB-75 CNS
BT-549 breast = test system: BT-549 breast
SF-539 CNS = test system: SF-539 CNS
T-47D breast = test system: T-47D breast
MOLT-4 leukemia = test system: MOLT-4 leukemia
HS 578T breast = test system: HS 578T breast
ACHN renal = test system: ACHN renal
UACC-62 melanoma = test system: UACC-62 melanoma
SF-295 CNS = test system: SF-295 CNS
U251 CNS = test system: U251 CNS
DU-145 prostate = test system: DU-145 prostate
HCC-2998 colon = test system: HCC-2998 colon
SNB-19 CNS = test system: SNB-19 CNS
NCI-H23 lung = test system: NCI-H23 lung
EKVX NSCLC = test system: EKVX NSCLC
NCI-H226 lung = test system: NCI-H226 lung
HOP-62 NSCLC = test system: HOP-62 NSCLC
OVCAR-4 ovarian = test system: OVCAR-4 ovarian
K-562 leukemia = test system: K-562 leukemia
TK-10 renal = test system: TK-10 renal
CAKI-1 renal = test system: CAKI-1 renal

Work on `O=C(CSc1nnc(-c2ccc(-c3nc4ccc(Cl)cc4[nH]3)cc2)o1)Nc1ccc(Cl)cc1` yielded a TGI (HT29 colon) of 10.9 µM, a GI50 (MALME-3M melanoma) of 1.85 µM and a TGI (MALME-3M melanoma) of 4.31 µM. It also gave a GI50 (MDA-MB-435) of 3.07 µM, a TGI (MDA-MB-435) of 10.6 µM and a GI50 (RXF 393 renal) of 1.93 µM. It also gave a TGI (RXF 393 renal) of 5 µM, a GI50 (HOP-92 NSCLC) of 2.35 µM and a TGI (HOP-92 NSCLC) of 9.26 µM. It also gave a GI50 (CCRF-CEM leukemia) of 2.59 µM, a TGI (CCRF-CEM leukemia) of 11 µM and a GI50 (SK-OV-3 ovarian) of 5.93 µM. It also gave a TGI (SK-OV-3 ovarian) of 20.8 µM, a GI50 (MCF7 breast) of 2.82 µM and a TGI (MCF7 breast) of 13.3 µM. For the same compound, the GI50 (NCI-H460 lung) was 1.96 µM, the TGI (NCI-H460 lung) was 4.29 µM and the GI50 (SNB-75 CNS) was 2.33 µM. It also gave a TGI (SNB-75 CNS) of 8.66 µM, a GI50 (BT-549 breast) of 2.15 µM and a TGI (BT-549 breast) of 6.23 µM. It also gave a GI50 (SF-539 CNS) of 1.67 µM, a TGI (SF-539 CNS) of 3.15 µM and a GI50 (T-47D breast) of 2.8 µM. It also gave a TGI (T-47D breast) of 19.8 µM, a GI50 (MOLT-4 leukemia) of 2.81 µM and a TGI (MOLT-4 leukemia) of 14.3 µM. The GI50 (HS 578T breast) was 2.27 µM, the TGI (HS 578T breast) was 7.65 µM and the GI50 (ACHN renal) was 1.91 µM. The TGI (ACHN renal) was 4.9 µM, the GI50 (UACC-62 melanoma) was 1.7 µM and the TGI (UACC-62 melanoma) was 3.86 µM. For the same compound, the GI50 (SF-295 CNS) was 1.99 µM, the TGI (SF-295 CNS) was 5.23 µM and the GI50 (U251 CNS) was 1.96 µM. It also gave a TGI (U251 CNS) of 4.07 µM, a GI50 (DU-145 prostate) of 4.14 µM and a TGI (DU-145 prostate) of 15.6 µM. For the same compound, the GI50 (HCC-2998 colon) was 11.2 µM, the TGI (HCC-2998 colon) was 27.3 µM and the GI50 (SNB-19 CNS) was 3.45 µM. For the same compound, the TGI (SNB-19 CNS) was 12.3 µM, the GI50 (NCI-H23 lung) was 1.99 µM and the TGI (NCI-H23 lung) was 4.74 µM. For the same compound, the GI50 (EKVX NSCLC) was 2.7 µM, the TGI (EKVX NSCLC) was 12.7 µM and the GI50 (NCI-H226 lung) was 1.6 µM. It also gave a TGI (NCI-H226 lung) of 4.36 µM, a GI50 (HOP-62 NSCLC) of 1.62 µM and a TGI (HOP-62 NSCLC) of 3.69 µM. The GI50 (OVCAR-4 ovarian) was 4.48 µM, the TGI (OVCAR-4 ovarian) was 19.3 µM and the GI50 (K-562 leukemia) was 2.19 µM. It also gave a TGI (K-562 leukemia) of 11.1 µM, a GI50 (TK-10 renal) of 15.6 µM and a TGI (TK-10 renal) of 32.2 µM. The GI50 (CAKI-1 renal) was 2.43 µM and the TGI (CAKI-1 renal) was 8.47 µM.
